Data set [1] is described as follows: Plasma decay of 125I-labelled synthetic peptide after intravenous injection. The format is in vivo, rabbit. The following applies: for plasma level leveled off to / plasma level after one hour: 125I-labelled peptide, intravenous, rabbit; for additional fall of plasma level over the next three hours: from one to four hours after injection. On the procedure:
(§1) Each labelled synthetic peptide preparation (containing, for example, 150 to 400 or more μCi of ^125 I-labelled peptide) in column elution buffer was injected into the marginal ear vein of the ballooned and healing New Zealand white rabbits or WHHL rabbits. Serial blood samples were obtained from the opposite ear during the ensuing 0-24 hours and were analyzed for radioactivity. The labelled peptide concentrations in the blood samples that were withdrawn over the first 10 minutes after injection were extrapolated to zero time to determine the time zero radioactivity in the calculation of average plasma radioactivity. […] Peptides SP15a, SP17, SP19a, SP21a, SP28, SP34a, and SP30 were cleared rapidly from the plasma with half-lives of about one minute or less; after one hour, the plasma levels were less than 10% of the injected dose and fell by an additional 1% over the next three hours. Peptides SP15a, SP17, SP21a, SP28, SP34a, and SP30 leveled off to a plasma level of 3-6%; peptide SP19a cleared more quickly and leveled off to a concentration of 0.3% (at four hours).

Data set [2] relates to balloon de-endothelialized healing abdominal aorta. Kind of data set: Focal accumulation at vascular injury, onlay autoradiography of excised aorta, balloon de-endothelialized rabbit. It counts as in vivo, New Zealand white rabbits. On the procedure: The peptides described herein were assayed for their ability to target sites of vascular injury as follows. Male New Zealand white rabbits (2 to 3 kg each) were obtained from ARI Breeding Labs, West Bridgewater, Mass. To induce vascular injury, their abdominal aortas were denuded of endothelium by a modification of the Baumgartner technique (Fischman et al., Arteriosclerosis 7:361, 1987). Briefly, after each animal was anesthetized with ketamine and ether or, alternatively, with xylazine (20 mg/ml) and Ketalar (50 mg/ml), the left femoral artery was isolated; a 4F Fogarty embolectomy catheter (Model 12-040-4F, Edwards Laboratories Incorporated, Santa Anna, Calif.) was introduced through an arterotomy in the femoral artery and was advanced under fluoroscopic visualization to the level of the diaphragm. The catheter was inflated to a pressure of about 3 psi above the balloon inflation pressure with radiographic contrast medium (Conray, Mallinkrodt, St. Louis, Mo.). Three passes were made through the abdominal aorta with the inflated catheter to remove the aortic endothelium before removal of the catheter, ligation of the femoral artery, and closure of the wound. The animals were allowed to heal for a period of 4 to 5 weeks before injection of the labelled synthetic peptides.
as §1
One to twenty-four hours after injection of the labelled synthetic peptide preparations, each animal was injected intravenously with 4 ml of a 0.5% solution of Evans blue dye (Allied Chemical Company, National Aniline Division, NY, N.Y.) which stains areas of de-endothelialized aorta blue. After 30 minutes, the animal was sacrificed by a lethal injection of pentobarbital. After sacrifice, the aorta was removed completely, washed in saline, and fixed in 10% trichloroacetic acid.
The washed and fixed aortas from the animals that had been injected with radiolabelled synthetic peptide were opened along the ventral surface. These segments were then pinned out, fixed for 2 hours in 10% trichloroacetic acid, and photographed. The fixed, opened vessels were then covered with a single layer of plastic (Saran) wrap, placed on high speed x-ray film (Kodak Orthofilm OH-1), and stored for 3 days to 4 weeks in a Kodak "X-Omatic cassette" (24×30 cm) at -70° C. before development in a 90 second X-OMAT.

Another data set relates to anti-SP-4 antiserum. Kind of data set: ELISA cross-reactivity: peptide-coated plates treated with anti-SP-4 antiserum. The format is binding, rabbit. The following applies: FIG. 4. Here is the method: To produce anti-synthetic peptide antisera, purified synthetic peptide was dissolved in PBS, pH 7.4 at a concentration of 1 mg/ml. The peptide solution was mixed with an equal volume of complete Freund's adjuvant and vortexed thoroughly until a thick emulsion was produced. New Zealand White rabbits (Millbrook Farms, Amherst, Mass.) were injected with a total of 0.5 mg synthetic peptide administered subcutaneously in the four dorsal quadrants. The rabbits were given a boost (injected at the same sites) with 0.5 mg peptide emulsified in incomplete Freund's adjuvant 2-3 weeks later. Eight to ten days after the first boost, the animals were given a second, identical boost and were bled of 30 ml 8 to 10 days later.
To test for immunological cross-reactivity microtiter plates (Immulon II Dynatech Labs, Chantilly, Va.) were coated with the purified synthetic peptide or LDL by an overnight incubation at 4° C. with 100 ng peptide per well in 50 mM carbonate, pH 9.6, and blocked for nonspecific binding with an additional overnight incubation with phosphate-buffered saline, pH 7.4 (PBS), 1% bovine serum albumin (BSA). Control wells were coated with BSA alone. After washing twice with PBS, the wells were filled with serial dilutions (1:10 to 1:100,000 made in PBS, 3% BSA) of a rabbit polyclonal antibody generated against the synthetic peptide(s) and incubated for 45 minutes at room temperature. Following thorough washing (3× with PBS, 0.1% BSA), the wells were filled with a 1:2000 dilution of goat anti-rabbit IgG-horseradish peroxidate conjugate (Atlantic Antibodies, Scarborough, Me.). After a final wash, the wells were filled with 3,3'-5,5'- tetramethybenzidine (TMB) microwell peroxidase substrate (Kirkegaard and Perry Labs, Gaithersburg, Md.) and read at 650 nm every two minutes on an ELISA-5 automated plate reader (Physica, New York, N.Y.). Results (see, e.g., FIGS. 4 and 5) are expressed as the initial velocity of substrate conversion (change in OD650 /hr), which is determined by a linear regression of 15 data points per well. Each data point represents the average of three measured data points from the same plate, run at the same time.

Data set [3] concerns atherosclerotic lesions of the aorta. Kind of data set: Focal accumulation at atherosclerotic lesions, onlay autoradiography of excised aorta, WHHL rabbit. It counts as in vivo, Watanabe Heritable Hyperlipemic (WHHL) rabbits. The following applies: FIG. 7. On the procedure:
Watanabe Heritable Hyperlipemic (WHHL) rabbits were also used as animal models. They were obtained from the WHHL Rabbit Program of the National Heart Lung and Blood Institute (Bethesda, Md.) at about 3 months of age and weighing about 1.5 kg. The animals were raised until they were 3-4 kg in weight.
as §1, with “hours). […]” for “hours).”

“Also recorded” adds a separate entry of the source. Ends that are not written are not given here.

In the case of “YVPGVGVPGVGVPGVGVPGVG-NH2 [SP-30, H2 N-Tyr-Val-Pro-Gly-Val-Gly-Val-Pro-Gly-Val-Gly-Val-Pro-Gly-Val-Gly-Val-pro- Gly-Val-Gly-CONH2]”, in data set [1], the “plasma level leveled off to” value was 3-6%, the “plasma level after one hour” value was “less than 10 % of the injected dose” and the “additional fall of plasma level over the next three hours” value is 1%. In addition, in data set [2], the “localization of 125I-labelled peptide on onlay autoradiograph of the aorta” value (from here on “localization of 125I-labelled peptide”) is “accumulated focally at the leading edges of regenerating endothelial tissue”.

For the substance “Ac-YRALVDTEFKVKQEAGAK-NH2 [SP-21a, CH3 CONH-Tyr-Arg-Ala-Leu-Val-Asp-Thr-Glu-Phe-Lys-Val-Lys-Gln-Glu-Ala-Gly-Ala-Lys-CONH2]”, in data set [1], the “plasma level leveled off to” value is recorded as 3-6%, the “plasma level after one hour” value is on record as “less than 10 % of the injected dose” and the “additional fall of plasma level over the next three hours” value worked out at 1%. In addition, the “localization of 125I-labelled peptide” value in data set [2] is given as “accumulated focally at the leading edges of regenerating endothelial tissue”.

Take “CH3 CONH-Tyr-Lys-Leu-Ala-Leu-Glu-Ala-Ala-Arg-Leu-Leu-Ala-Asp-Ala-Glu-Gly-Ala-Lys-CONH2 (Ac-YKLALEAARLLADAEGAK-NH2) [SP-6A, modified counterpart of SP-6]”: the “binding of anti-SP-4 antiserum to the peptide” value (from here on “binding of anti-SP-4 antiserum”) in the data set with anti-SP-4 antiserum is on record as “bind”.

In the case of “YAALDLNAVANKIADFEL-NH2 [SP-17, H2 N-Tyr-Ala-Ala-Leu-Asp-Leu-Asn-Ala-Val-Ala-Asn-Lys-Ile-Ala-Asp-Phe-Glu-Leu- CONH2]”, in data set [1], the “plasma level leveled off to” value is 3-6%, the “plasma level after one hour” value is on record as “less than 10 % of the injected dose” and the “additional fall of plasma level over the next three hours” value was determined as 1%. The “localization of 125I-labelled peptide” value in data set [2] is reported as “accumulated focally at the leading edges of regenerating endothelial tissue”.

With Ac-YVLDEFREKLNEELEALKQK-NH2 [SP-34a], in data set [1], the “plasma level leveled off to” value is 3-6%, the “plasma level after one hour” value is “less than 10 % of the injected dose” and the “additional fall of plasma level over the next three hours” value is on record as 1%. For the same substance, the “localization of 125I-labelled peptide” value in data set [2] is given as “accumulated focally at the leading edges of regenerating endothelial tissue”.

As to “CH3 CONH-Tyr-Arg-Ala-Leu-Val-Asp-Thr-Leu-Lys-CONH2 (Ac-YRALVDTLK-NH2) [SP-14A, modified counterpart of SP-14]”, the “binding of anti-SP-4 antiserum” value in the data set on anti-SP-4 antiserum was “bind”.

“H2 N-Tyr-Lys-Leu-Ala-Leu-Glu-Ala-Ala-Arg-Leu-Leu-Ala-Asn-Ala-Glu-Gly-Ala-Lys- CONH2 (H-YKLALEAARLLANAEGAK-NH2) [SP-8, conservatively substituted SP-4]”: the “binding of anti-SP-4 antiserum” value in the data set on anti-SP-4 antiserum is “bind”.

Turning to “NH2 -Tyr-Arg-Ala-Leu-Val-Asp-Thr-Leu-Lys-Phe-Val-Thr-Gln-Ala-Glu-Gly-Ala-Lys-CONH2 (H-YRALVDTLKFVTQAEGAK-NH2) [SP-4]”, the “localization of 125I-labelled peptide” value in data set [3] is listed as “clearly correspond to the radioactively-labelled lesions; also recorded: localizes at atherosclerotic lesions”; in data set [2], “clear-cut localization of the synthetic peptide on the image at the healing (re-endothelizing) edge of the aortic lesions; also recorded: labelled healing lesions”. Also, the “binding of anti-SP-4 antiserum” value with anti-SP-4 antiserum is “bind”.

Consider “CH3 CONH-Tyr-Arg-Ala-Leu-Val-Asp-Tyr-Leu-Lys-Phe-Val-Thr-Gln-Leu-CONH2 (Ac-YRALVDYLKFVTQL-NH2) [SP-12A, modified counterpart of SP-12]”, for which the “binding of anti-SP-4 antiserum” value in the data set with anti-SP-4 antiserum is on record as “bind”.

With “H2 N-Tyr-Lys-Leu-Ala-Leu-Glu-Ala-Ala-Arg-Leu-Leu-Ala-Asp-Ala-Glu-Gly-Ala-Lys- CONH2 (H-YKLALEAARLLADAEGAK-NH2) [SP-6, conservatively substituted SP-4]”, the “binding of anti-SP-4 antiserum” value in the data set on anti-SP-4 antiserum is on record as “bind”.

In the case of “CH3 CONH-Tyr-Lys-Leu-Ala-Leu-Glu-Ala-Ala-Arg-Leu-Leu-Ala-Asn-Ala-Glu-Gly-Ala-Lys-CONH2 (Ac-YKLALEAARLLANAEGAK-NH2) [SP-8A, modified counterpart of SP-8]”, the “binding of anti-SP-4 antiserum” value with anti-SP-4 antiserum is on record as “bind”.

As to “CH3 CONH-Tyr-Arg-Ala-Leu-Val-Asp-Thr-Leu-Lys-Phe-Val-Thr-Gln-Ala-Glu-Gly-Ala-Lys-CONH2 (Ac-YRALVDTLKFVTQAEGAK-NH2) [SP-4A, modified counterpart of SP-4]”, in the data set with anti-SP-4 antiserum, the “binding of anti-SP-4 antiserum” value is given as “bind”.

On to “YVGVAPGVGVAPGVGVAPG [SP-28, H2 N-Tyr-Val-Gly-Val-Ala-Pro-Gly-Val-Gly-Val-Ala-Pro-Gly-Val-Gly-Val-Ala-Pro- Gly-OH]”, for which, in data set [1], the “plasma level leveled off to” value is on record as 3-6%, the “plasma level after one hour” value is reported as “less than 10 % of the injected dose” and the “additional fall of plasma level over the next three hours” value is 1%. For the same substance, the “localization of 125I-labelled peptide” value in data set [2] is “accumulated focally at the leading edges of regenerating endothelial tissue”.

On to “Ac-YRALVDTLKFVTEQAKGA-NH2 [SP-19a, CH3 CONH-Tyr-Arg-Ala-Leu-Val-Asp-Thr-Leu-Lys-Phe-Val-Thr-Glu-Gln-Ala-Lys-Gly-Ala-CONH2]”, for which, in data set [1], the “plasma level after one hour” value was “less than 10 % of the injected dose” and the “additional fall of plasma level over the next three hours” value is listed as 1%. The “plasma concentration leveled off to” value in data set [1] (at four hours) came to 0.3%. In addition, the “localization of 125I-labelled peptide” value in data set [2] is recorded as “accumulated focally at the leading edges of regenerating endothelial tissue”.

Consider “Ac-YAKFRETLEDTRDRMY-NH2 [SP-15a, CH3 CONH-Tyr-Ala-Lys-Phe-Arg-Glu-Thr-Leu-Glu-Asp-Thr-Arg-Asp-Arg-Met-Tyr-CONH2]”, for which, in data set [1], the “plasma level leveled off to” value was 3-6%, the “plasma level after one hour” value was “less than 10 % of the injected dose” and the “additional fall of plasma level over the next three hours” value is listed as 1%. In data set [2], the “localization of 125I-labelled peptide” value is “accumulated focally at the leading edges of regenerating endothelial tissue”.

(Values after patent US5726153A, “Synthetic peptides for arterial imaging” (New England Deaconess Hospital Corporation, priority 1995, dated 1998).)
